Assay results taken from ChEMBL document CHEMBL4342421, “Current scenario of tetrazole hybrids for antibacterial activity” (Eur J Med Chem, 2019).
Converted amounts (≈) assume the structure as drawn. Blank lines part the entries; values can stand above or below the compound they belong to.

How the values were obtained:
Listeria monocytogenes = assay: Antimicrobial activity against Listeria monocytogenes; assay type: functional
Staphylococcus aureus [1] = assay: Antimicrobial activity against Staphylococcus aureus; assay type: functional
Escherichia coli [2] = assay: Antimicrobial activity against Escherichia coli; assay type: functional
Salmonella typhimurium = assay: Antimicrobial activity against Salmonella typhimurium; assay type: functional, Salmonella enterica subsp. enterica serovar Typhimurium; settings: Salmonella enterica
Proteus vulgaris = assay: Antimicrobial activity against Proteus vulgaris; assay type: functional
Nakaseomyces glabratus = assay: Antifungal activity against Candida glabrata; assay type: functional
Candida albicans [3] = assay: Antifungal activity against Candida albicans; assay type: functional
Bacillus subtilis [4] = assay: Antimicrobial activity against Bacillus subtilis; assay type: functional
Candida tropicalis = assay: Antifungal activity against Candida tropicalis; assay type: functional
Enterococcus faecalis = assay: Antimicrobial activity against Enterococcus faecalis; assay type: functional
Klebsiella pneumoniae = assay: Antimicrobial activity against Klebsiella pneumoniae; assay type: functional
Pseudomonas aeruginosa [5] = assay: Antimicrobial activity against Pseudomonas aeruginosa; assay type: functional
Aspergillus niger [6] = assay: Antifungal activity against Aspergillus niger; assay type: functional
[7] = system: Staphylococcus epidermidis; assay: Antimicrobial activity against Staphylococcus epidermidis; assay type: functional
Proteus mirabilis = assay: Antimicrobial activity against Proteus mirabilis; assay type: functional
Bacillus subtilis [8] = assay: Potency index, ratio of ciprofloxacin MIC to test compound MIC for antimicrobial activity against Bacillus subtilis; assay type: functional
Escherichia coli [9] = assay: Potency index, ratio of ciprofloxacin MIC to test compound MIC for antimicrobial activity against Escherichia coli; assay type: functional
[10] = Clearance in rat; assay type: ADME; settings: in vivo
[11] = Half life in rat; assay type: ADME; settings: in vivo
Staphylococcus aureus [12] = assay: Antimicrobial activity against Staphylococcus aureus assessed as zone of inhibition at 10 ug/ml; assay type: functional; settings: read-out: IZ
Staphylococcus aureus [13] = assay: Antimicrobial activity against Staphylococcus aureus assessed as zone of inhibition at 250 ug/ml; assay type: functional; settings: read-out: IZ
Bacillus subtilis [14] = assay: Antimicrobial activity against Bacillus subtilis assessed as zone of inhibition at 10 ug/ml; assay type: functional; settings: read-out: IZ
Pseudomonas aeruginosa [15] = assay: Antimicrobial activity against Pseudomonas aeruginosa assessed as zone of inhibition at 250 ug/ml; assay type: functional; settings: read-out: IZ
Aspergillus niger [16] = assay: Antifungal activity against Aspergillus niger assessed as zone of inhibition at 250 ug/ml; assay type: functional; settings: read-out: IZ
Escherichia coli [17] = assay: Antimicrobial activity against Escherichia coli assessed as zone of inhibition at 10 ug/ml; assay type: functional; settings: read-out: IZ
Candida albicans [18] = assay: Antifungal activity against Candida albicans assessed as zone of inhibition at 10 ug/ml; assay type: functional; settings: read-out: IZ
Candida albicans [19] = assay: Antifungal activity against Candida albicans assessed as zone of inhibition at 250 ug/ml; assay type: functional; settings: read-out: IZ
Bacillus cereus [20] = assay: Antimicrobial activity against Bacillus cereus assessed as zone of inhibition at 250 ug/ml; assay type: functional; settings: read-out: IZ
Escherichia coli [21] = assay: Antimicrobial activity against Escherichia coli assessed as zone of inhibition at 250 ug/ml; assay type: functional; settings: read-out: IZ
Pseudomonas aeruginosa [22] = assay: Antimicrobial activity against Pseudomonas aeruginosa assessed as zone of inhibition at 10 ug/ml; assay type: functional; settings: read-out: IZ
Aspergillus fumigatus [23] = assay: Antifungal activity against Aspergillus fumigatus assessed as zone of inhibition at 10 ug/ml; assay type: functional; settings: read-out: IZ
Aspergillus flavus = assay: Antifungal activity against Aspergillus flavus; assay type: functional
Trichothecium roseum = assay: Antifungal activity against Trichothecium roseum; assay type: functional
Bacillus cereus [24] = assay: Antimicrobial activity against Bacillus cereus; assay type: functional
[25] = system: Talaromyces purpureogenus; assay: Antifungal activity against Penicillium purpurogenum; assay type: functional
[26] = AUC in rat; assay type: ADME; settings: in vivo
Pseudomonas aeruginosa [27] = assay: Antimicrobial activity against Pseudomonas aeruginosa assessed as zone of inhibition at 30 ug/ml; assay type: functional; settings: read-out: IZ
Escherichia coli [28] = assay: Antimicrobial activity against Escherichia coli assessed as zone of inhibition at 30 ug/ml; assay type: functional; settings: read-out: IZ
Staphylococcus aureus [29] = assay: Antimicrobial activity against Staphylococcus aureus assessed as zone of inhibition at 30 ug/ml; assay type: functional; settings: read-out: IZ
Candida albicans [30] = assay: Antifungal activity against Candida albicans assessed as zone of inhibition at 30 ug/ml; assay type: functional; settings: read-out: IZ
Escherichia coli [31] = assay: Antimicrobial activity against Escherichia coli assessed as zone of inhibition at 250 ug/ml after 24 hrs by disk diffusion method; assay type: functional; settings: read-out: IZ
Bacillus subtilis [32] = assay: Antimicrobial activity against Bacillus subtilis assessed as zone of inhibition at 30 ug/ml; assay type: functional; settings: read-out: IZ
Aspergillus fumigatus [33] = assay: Antifungal activity against Aspergillus fumigatus assessed as zone of inhibition at 30 ug/ml; assay type: functional; settings: read-out: IZ

SMILES: C[C@@H](O)[C@H]1C(=O)N2C(C(=O)O)=C(S[C@@H]3CN[C@H](C(=O)N(C)C)C3)[C@H](C)[C@H]12 [MEROPENEM]
clearance [10]: 51.2 mL/min/kg | t1/2 [11]: 3.99 h

SMILES: CC(=O)N1CCN(c2ccc(OCC3COC(Cn4ccnc4)(c4ccc(Cl)cc4Cl)O3)cc2)CC1 (stereo not drawn) [KETOCONAZOLE]
zone of inhibition at 10 µg/mL (Staphylococcus aureus [12]): 23 to 24 mm | zone of inhibition at 250 µg/mL (Staphylococcus aureus [13]): 23 to 26 mm | zone of inhibition at 10 µg/mL (Bacillus subtilis [14]): 23 to 24 mm | zone of inhibition at 250 µg/mL (Pseudomonas aeruginosa [15]): 23 to 26 mm | zone of inhibition at 250 µg/mL (Aspergillus niger [16]): 23 to 26 mm | zone of inhibition at 10 µg/mL (Escherichia coli [17]): 23 to 24 mm | MIC (Candida albicans [3]): 100 µg/mL (≈ 188 µM) | zone of inhibition at 10 µg/mL (Candida albicans [18]): 23 to 24 mm | zone of inhibition at 250 µg/mL (Candida albicans [19]): 23 to 26 mm | zone of inhibition at 250 µg/mL (Bacillus cereus [20]): 23 to 26 mm | MIC (Bacillus subtilis [4]): 100 µg/mL (≈ 188 µM) | zone of inhibition at 250 µg/mL (Escherichia coli [21]): 23 to 26 mm | zone of inhibition at 10 µg/mL (Pseudomonas aeruginosa [22]): 23 to 24 mm | zone of inhibition at 10 µg/mL (Aspergillus fumigatus [23]): 23 to 24 mm

SMILES: C[C@@H](O)[C@H]1C(=O)N2C(C(=O)O)=C(SCCN=CN)C[C@H]12 [IMIPENEM ANHYDROUS]
AUC [26]: 5500 ng·h/mL | t1/2 [11]: 3.46 h

SMILES: CC1(C)S[C@@H]2[C@H](NC(=O)[C@H](N)c3ccc(O)cc3)C(=O)N2[C@H]1C(=O)O [AMOXICILLIN]
zone of inhibition at 250 µg/mL (Staphylococcus aureus [13]): 21 to 27 mm | zone of inhibition at 30 µg/mL (Pseudomonas aeruginosa [27]): 25 to 28 mm | zone of inhibition at 250 µg/mL (Pseudomonas aeruginosa [15]): 21 to 27 mm | zone of inhibition at 30 µg/mL (Escherichia coli [28]): 25 to 28 mm | zone of inhibition at 30 µg/mL (Staphylococcus aureus [29]): 25 to 28 mm | zone of inhibition at 250 µg/mL (Aspergillus niger [16]): 21 to 27 mm | zone of inhibition at 30 µg/mL (Candida albicans [30]): 25 to 28 mm | zone of inhibition at 250 µg/mL (Escherichia coli [31]): 21 to 27 mm | zone of inhibition at 250 µg/mL (Candida albicans [19]): 21 to 27 mm | zone of inhibition at 250 µg/mL (Bacillus cereus [20]): 21 to 27 mm | zone of inhibition at 250 µg/mL (Escherichia coli [21]): 21 to 27 mm | zone of inhibition at 30 µg/mL (Bacillus subtilis [32]): 25 to 28 mm | zone of inhibition at 30 µg/mL (Aspergillus fumigatus [33]): 25 to 28 mm

Further lines, with some results ahead:

MIC (Listeria monocytogenes): 12.5 to 400 µg/mL (≈ 24.5 to 784 µM) | MIC (Staphylococcus aureus [1]): 12.5 to 400 µg/mL (≈ 24.5 to 784 µM) | MIC (Escherichia coli [2]): 12.5 to 400 µg/mL (≈ 24.5 to 784 µM) | MIC (Salmonella typhimurium): 12.5 to 400 µg/mL (≈ 24.5 to 784 µM) | MIC (Proteus vulgaris): 12.5 to 400 µg/mL (≈ 24.5 to 784 µM) | MIC (Nakaseomyces glabratus): 12.5 to 400 µg/mL (≈ 24.5 to 784 µM) | MIC (Candida albicans [3]): 12.5 to 400 µg/mL (≈ 24.5 to 784 µM) | MIC (Bacillus subtilis [4]): 12.5 to 400 µg/mL (≈ 24.5 to 784 µM) | MIC (Candida tropicalis): 12.5 to 400 µg/mL (≈ 24.5 to 784 µM) | MIC (Enterococcus faecalis): 12.5 to 400 µg/mL (≈ 24.5 to 784 µM) | MIC (Klebsiella pneumoniae): 12.5 to 400 µg/mL (≈ 24.5 to 784 µM) | MIC (Pseudomonas aeruginosa [5]): 12.5 to 400 µg/mL (≈ 24.5 to 784 µM)
SMILES: Cn1c(-c2ccc(NC(=O)CSc3nnnn3-c3ccccc3)cc2)nc2cc(Cl)c(Cl)cc21

MIC (Staphylococcus aureus [1]): 3.12 to 25 µg/mL (≈ 7.49 to 59.9 µM) | MIC (Escherichia coli [2]): 3.12 to 25 µg/mL (≈ 7.49 to 59.9 µM) | MIC (Aspergillus niger [6]): 3.12 to 25 µg/mL (≈ 7.49 to 59.9 µM) | MIC (Candida albicans [3]): 3.12 to 25 µg/mL (≈ 7.49 to 59.9 µM) | MIC [7]: 3.12 to 25 µg/mL (≈ 7.49 to 59.9 µM) | MIC (Pseudomonas aeruginosa [5]): 3.12 to 25 µg/mL (≈ 7.49 to 59.9 µM) | MIC (Proteus mirabilis): 3.12 to 25 µg/mL (≈ 7.49 to 59.9 µM)
SMILES: COc1ccc(C2=NN(C(N)=S)C(c3cc4ccc(C)cc4n4nnnc34)C2)cc1 (stereo not drawn)

MIC (Staphylococcus aureus [1]): 3.12 to 25 µg/mL (≈ 7.49 to 59.9 µM) | MIC (Escherichia coli [2]): 3.12 to 25 µg/mL (≈ 7.49 to 59.9 µM) | MIC (Aspergillus niger [6]): 3.12 to 25 µg/mL (≈ 7.49 to 59.9 µM) | MIC (Candida albicans [3]): 3.12 to 25 µg/mL (≈ 7.49 to 59.9 µM) | MIC [7]: 3.12 to 25 µg/mL (≈ 7.49 to 59.9 µM) | MIC (Pseudomonas aeruginosa [5]): 3.12 to 25 µg/mL (≈ 7.49 to 59.9 µM) | MIC (Proteus mirabilis): 3.12 to 25 µg/mL (≈ 7.49 to 59.9 µM)
SMILES: COc1ccc(C2=NN(C(N)=S)C(c3cc4cc(C)ccc4n4nnnc34)C2)cc1 (stereo not drawn)

MIC (Escherichia coli [2]): 7.7 µg/mL (≈ 16.4 µM) | MIC (Bacillus subtilis [4]): 8.33 µg/mL (≈ 17.7 µM)
SMILES: COc1ccc(/C=C2\SC(=O)N(Cc3ccc(-c4ccccc4-c4nnn[nH]4)cc3)C2=O)cc1
Ratio (Bacillus subtilis [8]): >2.91 | Ratio (Escherichia coli [9]): >2.91

MIC (Aspergillus flavus): 30 to 40 µg/mL (≈ 87.9 to 117 µM) | MIC (Escherichia coli [2]): 30 to 40 µg/mL (≈ 87.9 to 117 µM) | MIC (Trichothecium roseum): 30 to 40 µg/mL (≈ 87.9 to 117 µM) | MIC (Bacillus cereus [24]): 30 to 40 µg/mL (≈ 87.9 to 117 µM) | MIC [25]: 30 to 40 µg/mL (≈ 87.9 to 117 µM) | MIC (Bacillus subtilis [4]): 30 to 40 µg/mL (≈ 87.9 to 117 µM) | MIC (Pseudomonas aeruginosa [5]): 30 to 40 µg/mL (≈ 87.9 to 117 µM)
SMILES: N=C(N)Nc1nnn(Cc2ccccc2Cn2nnc(C(=N)N)n2)n1
